Active and inactive are the calls of the source. No cut-off for these calls is given here.
What was measured:
[1] = Efflux ratio of apparent permeability from basolateral to apical side over apical to basolateral side in MDCK-MDR1 cells; assay type: ADME, cell-based, Canis lupus familiaris; conditions: dog
[2] = Apparent permeability across basolateral to apical side in dog MDCK-MDR1 cells incubated for 60 mins by LC-MS/MS analysis; assay type: ADME, cell-based, Canis lupus familiaris
[3] = tested on: Trypanosoma brucei brucei; assay: Antitrypanosomal activity against bloodstream form of Trypanosoma brucei brucei 221 assessed as parasite growth inhibition at 100 ug/ml incubated for 48 hrs by resazurin staining based assay relative to control; assay type: functional
[4] = Apparent permeability across apical to basolateral side in dog MDCK-MDR1 cells incubated for 60 mins by LC-MS/MS analysis; assay type: ADME, cell-based, Canis lupus familiaris
RNA = assay: Binding affinity to major groove of ds-RNA (unknown origin) assessed as positive ICD band by CD spectroscopy; assay type: nucleic-acid assay
[5] = tested on: Poly(dA-dT)oligonucleotide; assay: Binding affinity to poly (dA-dT)2 (unknown origin) assessed as thermal stability by measuring melting temperature by spectrophotometric method; assay type: nucleic-acid assay
dsDNA = assay: Binding affinity to minor groove of ds-DNA (unknown origin) assessed as positive ICD band by CD spectroscopy; assay type: nucleic-acid assay
[6] = tested on: Trypanosoma brucei brucei; assay: Antitrypanosomal activity against bloodstream form of Trypanosoma brucei brucei 221 assessed as parasite growth inhibition at 1 ug/ml incubated for 48 hrs by resazurin staining based assay relative to control; assay type: functional
Calf thymus DNA [7] = assay: Binding affinity to calf thymus DNA assessed as thermal stability by measuring melting temperature by spectrophotometric method; assay type: nucleic-acid assay; conditions: Bos taurus
[8] = tested on: Trypanosoma brucei brucei; assay: Potency index, ratio of nifurtimox IC50 to compound IC50 for antitrypanosomal activity against blood stream form of Trypanosoma brucei brucei 221; assay type: functional
[9] = tested on: Poly(dA-dU)oligonucleotide; assay: Binding affinity to poly A-poly U (unknown origin) assessed as thermal stability by measuring melting temperature by spectrophotometric method; assay type: nucleic-acid assay
[10] = tested on: Trypanosoma brucei brucei; assay: Antitrypanosomal activity against bloodstream form of Trypanosoma brucei brucei 221 assessed as parasite growth inhibition incubated for 48 hrs by resazurin staining based assay; assay type: functional, organism-based; conditions: for IC50: Trypanosoma brucei, 221, 48 h; for IC90: Trypanosoma brucei, 221, time 48 hrs
[11] = Selectivity index, ratio of IC50 for rat L6 cells to IC50 for Trypanosoma brucei brucei 221; assay type: toxicity; conditions: read-out: Ratio IC50
[12] = tested on: Poly(dA-dT)oligonucleotide; assay: Binding affinity to p(dAdT)2 (unknown origin) assessed as binding constant by fluorescence spectra analysis; assay type: nucleic-acid assay
Calf thymus DNA [13] = assay: Binding affinity to calf thymus DNA assessed as binding constant by fluorescence spectra analysis; assay type: nucleic-acid assay; conditions: Bos taurus
[14] = tested on: Poly(dA-dU)oligonucleotide; assay: Binding affinity to poly A-poly U (unknown origin) assessed as binding constant by fluorescence spectra analysis; assay type: nucleic-acid assay
L6 = assay: Cytotoxicity against rat L6 cells incubated for 6 days by resazurin dye based assay; assay type: cell-based; conditions: L6, 144 h
[15] = tested on: Trypanosoma brucei brucei; assay: Antitrypanosomal activity against bloodstream form of Trypanosoma brucei brucei 221 assessed as parasite growth inhibition at 10 ug/ml incubated for 48 hrs by resazurin staining based assay relative to control; assay type: functional
[16] = tested on: Poly(dG-dC)oligonucleotide; assay: Binding affinity to p(dGdC)2 (unknown origin) assessed as binding constant by fluorescence spectra analysis; assay type: nucleic-acid assay
[17] = tested on: Trypanosoma brucei brucei; assay: Antitrypanosomal activity against bloodstream form of Trypanosoma brucei brucei assessed as parasite growth inhibition incubated for 3 days by alamar blue staining based assay; conditions: 72 h

| Compound | efflux ratio [1] | Papp B→A at 1 h [2] | inhibition at 100 µg/mL [3] | Papp A→B at 1 h [4] | other results |
| --- | --- | --- | --- | --- | --- |
| COc1cc(-c2nc3cc(C4=NCCN4)ccc3[nH]2)ccc1OCCN1CCOCC1.Cl.Cl | 1.04 | 0.67 ×10⁻⁶ cm/s | 100% | 0.64 ×10⁻⁶ cm/s | – |
| COc1cc(-c2nc3cc(C4=NCCN4)ccc3[nH]2)ccc1OCc1ccccn1.Cl | 4.22 | 0.52 ×10⁻⁶ cm/s | 100% | 0.12 ×10⁻⁶ cm/s | – |
| Cl.c1ccc(COc2ccc(-c3nc4cc(C5=NCCN5)ccc4[nH]3)cc2)nc1 | 7.82 | 0.51 ×10⁻⁶ cm/s | 100% | 0.07 ×10⁻⁶ cm/s | – |
| CCN(CC)CCOc1ccc(-c2nc3cc(C4=NCCN4)ccc3[nH]2)cc1OC.Cl.Cl | > 5 | 0.5 ×10⁻⁶ cm/s | 100% | < 0.1 ×10⁻⁶ cm/s | Activity (RNA): Active; ΔTm [5]: 19.3 °C; Activity (dsDNA): Active; inhibition at 1 µg/mL [6]: > 90%; ΔTm (Calf thymus DNA [7]): 7.2 °C; Ratio IC50 [8]: >2; ΔTm [9]: 2.3 °C; IC50 [10]: 710 nM; IC90 [10]: 1470 nM; selectivity ratio [11]: > 350; log Ks [12]: 7.1; log Ks (Calf thymus DNA [13]): 6.8; log Ks [14]: 5.4; IC50 (L6): > 250000 nM |
| Cl.Fc1cc(-c2nc3cc(C4=NCCN4)ccc3[nH]2)ccc1OCc1ccccn1 | > 2.4 | 0.2 ×10⁻⁶ cm/s | 100% | < 0.1 ×10⁻⁶ cm/s | inhibition at 10 µg/mL [15]: 40% |
| CCN(CC)CCOc1ccc(-c2nc3cc(C4=NCCN4)ccc3[nH]2)cc1.Cl.Cl | 2.38 | 0.63 ×10⁻⁶ cm/s | 100% | 0.27 ×10⁻⁶ cm/s | Activity (RNA): Active; ΔTm [5]: 17.9 °C; Activity (dsDNA): Active; inhibition at 1 µg/mL [6]: > 90%; ΔTm (Calf thymus DNA [7]): 6.4 °C; log Ks [16]: 5.3; Ratio IC50 [8]: >2; ΔTm [9]: 4.5 °C; IC50 [10]: 470 nM; IC90 [10]: 1820 nM; selectivity ratio [11]: > 530; log Ks [12]: 5.2; log Ks (Calf thymus DNA [13]): 5.9; log Ks [14]: 5.1; IC50 (L6): > 250000 nM |
| COc1cc(-c2nc3cc(C4=NCCN4)ccc3[nH]2)ccc1OCc1cn(CCN2CCOCC2)nn1.Cl.Cl | 1.86 | 0.89 ×10⁻⁶ cm/s | 100% | 0.48 ×10⁻⁶ cm/s | – |
| COc1cc(-c2nc3cc(C4=NCCN4)ccc3[nH]2)ccc1OCC(=O)c1ccccc1.Cl | – | – | 100% | < 0.1 ×10⁻⁶ cm/s | – |
| Cl.c1cc(-c2nc3cc(C4=NCCN4)ccc3[nH]2)ccc1OCCN1CCOCC1 | 1.4 | 0.69 ×10⁻⁶ cm/s | 100% | 0.49 ×10⁻⁶ cm/s | – |
| Cl.Cl.O=C(COc1ccc(-c2nc3cc(C4=NCCN4)ccc3[nH]2)cc1)N1CCOCC1 | 1.44 | 1.53 ×10⁻⁶ cm/s | 100% | 1.06 ×10⁻⁶ cm/s | – |
| COc1cc(-c2nc3cc(C4=NCCN4)ccc3[nH]2)ccc1OCc1cn(Cc2ccccc2)nn1.Cl | – | < 0.1 ×10⁻⁶ cm/s | 100% | < 0.1 ×10⁻⁶ cm/s | – |
| COc1cc(-c2nc3cc(C4=NCCN4)ccc3[nH]2)ccc1OCC(=O)N1CCOCC1.Cl.Cl | 0.78 | 1.38 ×10⁻⁶ cm/s | 100% | 1.76 ×10⁻⁶ cm/s | – |
| Cl.O=C(COc1ccc(-c2nc3cc(C4=NCCN4)ccc3[nH]2)cc1)c1ccccc1 | – | 0.11 ×10⁻⁶ cm/s | 100% | < 0.1 ×10⁻⁶ cm/s | – |
| CC1CS(=O)(=O)CCN1/N=C/c1ccc([N+](=O)[O-])o1 (stereo not given) [NIFURTIMOX] | – | – | – | – | IC50 [17]: 2000 nM |
| Cl.c1cc(-c2nc3cc(C4=NCCN4)ccc3[nH]2)ccc1OCc1c[nH]nn1 | 1.81 | 0.84 ×10⁻⁶ cm/s | 100% | 0.46 ×10⁻⁶ cm/s | inhibition at 1 µg/mL [6]: > 90%; IC50 [10]: > 4000 nM |
| Cl.Cl.c1cc(-c2nc3cc(C4=NCCN4)ccc3[nH]2)ccc1OCc1cn(CCN2CCOCC2)nn1 | 1.09 | 1.18 ×10⁻⁶ cm/s | 100% | 1.09 ×10⁻⁶ cm/s | inhibition at 1 µg/mL [6]: > 90%; IC50 [10]: > 4000 nM |
| Cl.Cl.Fc1cc(-c2nc3cc(C4=NCCN4)ccc3[nH]2)ccc1OCCN1CCOCC1 | 1.7 | 0.84 ×10⁻⁶ cm/s | 100% | 0.49 ×10⁻⁶ cm/s | – |
| Cl.Cl.O=C(COc1ccc(-c2nc3cc(C4=NCCN4)ccc3[nH]2)cc1F)N1CCOCC1 | 1.16 | 0.99 ×10⁻⁶ cm/s | 100% | 0.86 ×10⁻⁶ cm/s | – |
| CCN(CC)CCOc1ccc(-c2nc3cc(C4=NCCN4)ccc3[nH]2)cc1F.Cl.Cl | 2.92 | 0.49 ×10⁻⁶ cm/s | 100% | 0.17 ×10⁻⁶ cm/s | ΔTm [5]: 14.7 °C; inhibition at 1 µg/mL [6]: > 90%; ΔTm (Calf thymus DNA [7]): 4.5 °C; log Ks [16]: 4.5; ΔTm [9]: 2.4 °C; IC50 [10]: 3670 nM; selectivity ratio [11]: > 68; log Ks [12]: 6.4; log Ks (Calf thymus DNA [13]): 6; log Ks [14]: 4.9; IC50 (L6): > 250000 nM |
| Cl.Fc1cc(-c2nc3cc(C4=NCCN4)ccc3[nH]2)ccc1OCc1cn(Cc2ccccc2)nn1 | – | 0.09 ×10⁻⁶ cm/s | 100% | < 0.1 ×10⁻⁶ cm/s | – |
| Cl.O=C(COc1ccc(-c2nc3cc(C4=NCCN4)ccc3[nH]2)cc1F)c1ccccc1 | – | < 0.1 ×10⁻⁶ cm/s | 100% | < 0.1 ×10⁻⁶ cm/s | – |
| Cl.Cl.Fc1cc(-c2nc3cc(C4=NCCN4)ccc3[nH]2)ccc1OCc1cn(CCN2CCOCC2)nn1 | 1.64 | 0.8 ×10⁻⁶ cm/s | 100% | 0.49 ×10⁻⁶ cm/s | IC50 [10]: > 4000 nM |
